In patent US20250275987A1, “MODULATORS OF INTRACELLULAR CHLORIDE CONCENTRATION FOR USE IN THE TREATMENT OF COGNITIVE DECLINE” (FONDAZIONE ISTITUTO ITALIANO DI TECNOLOGIA, priority 2022, published 2025):

Columns and labels:
[1] = biological target: T1, KCC2 (Homo sapiens, UniProt Q9H2X9); experiment: Thallium influx functional assay (FluxOR Potassium ion channel assay) in HEK293T cells transfected with KCC2; format: cell-based
T1 construct: expressed in transfected cells; host or cells: HEK293T
T1 sequence (Q9H2X9 1-1139): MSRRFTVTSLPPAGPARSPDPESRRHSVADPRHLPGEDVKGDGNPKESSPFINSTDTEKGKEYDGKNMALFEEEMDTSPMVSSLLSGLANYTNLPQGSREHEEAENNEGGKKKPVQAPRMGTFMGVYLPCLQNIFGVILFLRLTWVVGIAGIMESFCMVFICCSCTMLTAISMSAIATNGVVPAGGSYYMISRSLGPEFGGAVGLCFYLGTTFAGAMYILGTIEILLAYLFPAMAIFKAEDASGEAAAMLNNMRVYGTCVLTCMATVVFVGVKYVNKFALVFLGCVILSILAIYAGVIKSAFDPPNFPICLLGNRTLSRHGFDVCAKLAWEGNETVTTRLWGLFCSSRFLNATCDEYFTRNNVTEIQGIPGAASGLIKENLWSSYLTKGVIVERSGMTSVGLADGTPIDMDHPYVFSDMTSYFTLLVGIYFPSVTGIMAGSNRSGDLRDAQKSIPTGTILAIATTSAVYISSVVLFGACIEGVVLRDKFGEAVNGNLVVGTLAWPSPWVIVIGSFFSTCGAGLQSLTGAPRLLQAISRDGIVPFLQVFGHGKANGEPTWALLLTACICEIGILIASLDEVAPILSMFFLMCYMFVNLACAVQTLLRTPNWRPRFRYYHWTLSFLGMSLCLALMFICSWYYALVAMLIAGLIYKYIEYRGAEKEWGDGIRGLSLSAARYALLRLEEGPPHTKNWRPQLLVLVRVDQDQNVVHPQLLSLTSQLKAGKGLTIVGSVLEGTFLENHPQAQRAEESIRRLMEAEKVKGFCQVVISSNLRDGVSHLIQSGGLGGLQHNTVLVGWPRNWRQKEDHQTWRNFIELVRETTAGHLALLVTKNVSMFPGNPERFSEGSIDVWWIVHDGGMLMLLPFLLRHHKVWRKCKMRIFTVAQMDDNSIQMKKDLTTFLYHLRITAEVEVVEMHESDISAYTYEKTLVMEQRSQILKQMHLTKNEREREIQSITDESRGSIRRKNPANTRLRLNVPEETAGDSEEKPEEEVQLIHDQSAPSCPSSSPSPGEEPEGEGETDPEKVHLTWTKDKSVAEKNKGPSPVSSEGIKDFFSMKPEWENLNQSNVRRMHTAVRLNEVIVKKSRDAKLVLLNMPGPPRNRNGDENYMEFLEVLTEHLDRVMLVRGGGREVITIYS
Method: To verify the efficacy of the compounds to inhibit KCC2 in vitro a functional assay was used (FluxOR Potassium ion channel assay, Life Technologies), which measures the influx of thallium ions (replacing potassium) which permeate into the cell through KCC2. The thallium ions inside the cell are then measured using a Thallium sensor, the fluorescence of which increases after binding with thallium. In particular, the HEK293T cells were transfected with KCC2 or with the empty plasmid (mock control cells). After two days the cells were treated with the thallium sensor and in a solution without chlorine ions. After one hour the cells were washed and treated with furosemide and DMSO as negative control, again in a solution without chlorine ions and in the presence of a sodium/potassium pump inhibitor (ouabain). After twenty minutes the plates were placed in the Tecan Spark reader. The inhibitory activity of furosemide, reported in Table 1, was measured monitoring the fluorescence after thallium (TlSO4) and chlorine (NaCl) application.

[2] = tested on: elderly mice; experiment: Object localization (OL) test of spatial memory in elderly mice; format: in vivo; conditions: 25 mg/kg i.p., vs vehicle, FIG. 3b
Excerpt: FIG. 3 illustrates the evaluation of the efficacy of furosemide (KCC2 inhibitor) to restore impaired memory in elderly mice. a) Quantification of the discrimination index of the NOR test in young (n=13) and elderly (n=10) mice (two tailed t-test, ** P<0.01). b) Quantification of the discrimination index of the OL test in mice treated with vehicle (young, n=13, elderly, n=7) or furosemide (young, n=11, elderly, n=6) (two-way ANOVA, Tukey post hoc test, * P<0.05).
To evaluate memory capacity in the elderly mice, the novel object recognition (NOR) test was conducted. This test evaluates the long-term object recognition memory by measuring the capacity of the mice to recognize a novel object compared to familiar objects. […] Subsequently, to test the ability of the non-selective KCC2 inhibitor, furosemide, to restore poor memory, the object localization (OL) test was conducted in the presence of the drug. The object localization test evaluates spatial memory by measuring the ability of the mice to recognize the new position of a familiar object. The mice were treated with furosemide (25 mg/kg i.p.) or with the vehicle.

[3] = tested on: mice C57BL/6J aged >24 months; experiment: Open field test after benzodiazepine administration; format: in vivo; conditions: elderly mice (>24 months), 2 mg/kg in saline, vs elderly vehicle or young mice treated with diazepam
Excerpt: FIG. 2 illustrates the evaluation of the effect of benzodiazepines in elderly mice which is indicative of a potentiated GABAergic transmission. a) Quantification of the immobility time during the open field test of mice treated with vehicle (young, n=7, elderly, n=6) or diazepam (young, n=7, elderly, n=7) (two-way ANOVA, Tukey post hoc test, *** P<0.001). b) Quantification of the distance travelled during the open field test by mice treated with vehicle (young, n=7, elderly, n=6) or diazepam (young, n=7, elderly, n=7) (two-way ANOVA, Tukey post hoc test, […], *** P<0.001).
In fact, benzodiazepines are positive allosteric modulators of GABAAR. Benzodiazepines are commonly used as anxiolytic drugs, but can produce anxiogenic or highly sedative effects depending on the polarity of GABAergic transmission. To test the reaction of elderly mice to benzodiazepines, mice C57BL/6J aged >24 months and 2-month old controls C57BL/6J were treated with diazepam (2 mg/kg in saline solution) or vehicle (2% DMSO in saline solution). The open field test was then carried out to evaluate locomotor activity and the level of anxiety of the mice tested. […] This is indicative of an over-sedation reaction of the diazepam in the elderly mice, which may reflect the presence of hyper-inhibitory GABAergic transmission. This evidence in accordance with the […] of KCC2 (FIG. 1b).

## NS(=O)(=O)c1cc(C(=O)O)c(NCc2ccco2)cc1Cl [Furosemide, furosemide]
[1]; 10 μM, HEK293T cells transfected with KCC2, thallium fluorescence
  % KCC2 inhibition at 10 μM: Inactive
[1]; HEK-293T, 50 μM, HEK293T cells transfected with KCC2, thallium fluorescence
  inhibition at 50 µM: 39.8 ± 1.6%
[1]; HEK-293T, 100 μM, HEK293T cells transfected with KCC2, thallium fluorescence
  inhibition at 100 µM: 45.1 ± 6.4%
[1]; KCC2 inhibition in vitro
  IC50: 455 µM
[2]
  spatial memory (discrimination index of the OL test): significantly restored the poor spatial memory of the elderly mice to the level of the young mice

## CN1C(=O)CN=C(c2ccccc2)c2cc(Cl)ccc21 [diazepam]
[3]; FIG. 2a
  immobility time during the open field test: significantly higher immobility time
[3]; FIG. 2b
  distance travelled during the open field test: significantly lower distance travelled
